For three molecules, IC50 results are on record in ChEMBL document CHEMBL3739284, “Anteaglonialides A-F and Palmarumycins CE(1)-CE(3) from Anteaglonium sp. FL0768, a Fungal Endophyte of the Spikemoss Selaginella arenicola” (J Nat Prod, 2015).

This test can be described thus: Cytotoxicity against human CHP100 cells after 24 hrs by MTT assay. It is filed as functional, cell-based. Conditions: CHP100, 24 h. (In general: Tetrazolium dyes change colour on reduction, which living cells bring about.)
Turning to `O=C1C=C[C@H]2O[C@H]3CC(=O)[C@@H]1[C@@H]2C31Oc2cccc3cccc(c23)O1`, the IC50 came to 400 nM.
As to `O=C1C=CC2(Oc3cccc4cccc(c34)O2)[C@H]([C@H]2CCC(=O)O2)C1`, the IC50 was found to be 1400 nM.
The same measure for `O=C1C=CC2(Oc3cccc4cccc(c34)O2)c2cccc(O)c21`: 1600 nM.

Broadly, the IC50 is the concentration needed to halve the response being measured. A low value points to greater potency in that assay.
